Data published in patent US12486216B2, “Processes for preparing nitrosylated propanediols, compositions comprising the same, and medical uses thereof” (ATTGENO AB, priority 2018, dated 2025).

Tests used:
anesthetised pigs = assay: Pharmacological investigation of 1,2-PDNO—R, 1,2-PDNO—S and 1,3-PDNO in anesthetised pigs; format: in vivo, pig; settings: pH approximately 8
Source text: Prior to experimentation, ethical approval was received from Linköping's regional animal ethics committee (Linköping, Sweden; approval number 953). In brief, 2 male and female pigs (a crossbreed between Swedish country breed, Hampshire and Yorkshire; 3-4 months old; 24-26 kg) were premedicated with azaperone at the farm and transported to the laboratory. At the laboratory, anaesthesia was induced with a mixture of tiletamine, zolazepam and azaperone (intramuscular injection). Propofol was given in a peripheral venous catheter in an ear vein, if needed. Bolus doses of atropine and cefuroxime were administered intravenously. The animals were endotracheally intubated and mechanically ventilated (5 cm H2O in positive end-expiratory pressure, minute ventilation was adjusted to normoventilation). General anaesthesia was maintained with propofol and fentanyl via continuous intravenous infusions, and additional bolus doses were given if needed. Ringer's acetate and glucose solutions were continuously administered intravenously to substitute for fluid loss. Heparin was given as an intravenous bolus dose after the surgical instrumentation. After the experiments the animals were killed in general anaesthesia with a propofol injection followed by a rapid intravenous injection of potassium chloride (40 mmol), and asystolia was confirmed.
The animals were instrumented with an arterial catheter in the right carotid artery for measurement of systemic arterial blood pressure and heart rate. A sheath was placed in the right external jugular vein for introduction of a pulmonary-arterial catheter. This catheter was used for continuous measurement of pulmonary arterial blood pressure, semi-continuous cardiac output and intermittent pulmonary wedge pressure. […] Respiratory gases, pressures and volumes were measured at the endotracheal tube. Respiratory and hemodynamic variables were measured by a Datex AS/3 (Helsinki, Finland) and data were collected by a computerised system (MP100 or MP150/Acknowledge 3.9.1, BIOPAC systems, Goleta, CA, USA). […]

[1] = Stability of non-aqueous mixtures of the nitrites in 1,2-propanediol (GC); format: physicochemical
Protocol: Three different concentrations of 1-(nitrosooxy)-propan-2-ol and 2-(nitrosooxy)-propan-1-ol in 1,2-propanediol were prepared and stored in both a refrigerator (5° C.) and freezer (−20° C.). Aliquots of each solution were taken periodically and analysed by GC to determine the concentration of 1-(nitrosooxy)-propan-2-ol and 2-(nitrosooxy)-propan-1-ol.
The results of the GC analysis are shown in the table below (column: Rxi-5Sil MS, 20 m×0.18 mm, […]; carrier: He; Inlet: 250° C., split ratio 100:1; constant flow: 1.0 mL/min; oven temperature profile: 40° C. (3 min), 10° C./min, 80° C. (0 min), 30° C./min, 250° C. (3 min); FID: 300° C., H2 flow 30 mL/min, air flow 400 mL/min, make-up flow (N2) 25 mL/min; internal standard: 1,1,1,3,5,5,5-heptamethyl trisiloxane): […]

[2] = tested on: anesthetised and mechanically ventilated pigs with U46619-induced pulmonary hypertension; assay: In vivo study in pigs with U46619-induced pulmonary hypertension, PDNO infusion vs inhaled NO; settings: for mean pulmonary arterial pressure / pulmonary vascular resistance: median (interquartile range)
[3] = 10-15 min iv infusion (1,2-PDNO—R and —S 43, 1,3-PDNO 30 nmol kg^−1 min^−1) into sodium bicarbonate carrier
[4] = Freezer (−20° C.), 10 days, Low conc.
[5] = Freezer (−20° C.), 10 days, Medium conc.
[6] = Freezer (−20° C.), 14 days, High conc.
[7] = Freezer (−20° C.), 27 days, Low conc.
[8] = Freezer (−20° C.), 27 days, Medium conc.
[9] = Freezer (−20° C.), 28 days, High conc.
[10] = Freezer (−20° C.), 56 days, High conc.
[11] = Freezer (−20° C.), 64 days, Low conc.
[12] = Freezer (−20° C.), 64 days, Medium conc.
[13] = Freezer (−20° C.), 84 days, High conc.
[14] = Freezer (−20° C.), 84 days, Low conc.
[15] = Freezer (−20° C.), 84 days, Medium conc.
[16] = Freezer (−20° C.), Start, High conc.
[17] = Freezer (−20° C.), Start, Low conc.
[18] = Freezer (−20° C.), Start, Medium conc.
[19] = Refrigerator (5° C.), 10 days, Low conc.
[20] = Refrigerator (5° C.), 10 days, Medium conc.
[21] = Refrigerator (5° C.), 14 days, High conc.
[22] = Refrigerator (5° C.), 27 days, Low conc.
[23] = Refrigerator (5° C.), 27 days, Medium conc.
[24] = Refrigerator (5° C.), 28 days, High conc.
[25] = Refrigerator (5° C.), 56 days, High conc.
[26] = Refrigerator (5° C.), 64 days, Low conc.
[27] = Refrigerator (5° C.), 64 days, Medium conc.
[28] = Refrigerator (5° C.), 84 days, High conc.
[29] = Refrigerator (5° C.), 84 days, Low conc.
[30] = Refrigerator (5° C.), 84 days, Medium conc.
[31] = Refrigerator (5° C.), Start, High conc.
[32] = Refrigerator (5° C.), Start, Low conc.
[33] = Refrigerator (5° C.), Start, Medium conc.
[34] = U46619 infusion alone, data not shown
[35] = PDNO iv 15-60 nmol kg^−1 min^−1 or inhaled NO 5-40 ppm, during U46619
[36] = PDNO or inhaled NO during U46619, data not shown

Compound	Concentration [1, 4] [% w/w]	Concentration [1, 5] [% w/w]	Concentration [1, 6] [% w/w]	Concentration [1, 7] [% w/w]	Concentration [1, 8] [% w/w]	Concentration [1, 9] [% w/w]	Concentration [1, 10] [% w/w]	Concentration [1, 11] [% w/w]	Concentration [1, 12] [% w/w]	Concentration [1, 13] [% w/w]	Concentration [1, 14] [% w/w]	Concentration [1, 15] [% w/w]	Concentration [1, 16] [% w/w]	Concentration [1, 17] [% w/w]	Concentration [1, 18] [% w/w]	Concentration [1, 19] [% w/w]	Concentration [1, 20] [% w/w]	Concentration [1, 21] [% w/w]	Concentration [1, 22] [% w/w]	Concentration [1, 23] [% w/w]	also measured
O=NOCCCO [1,3-PDNO, 1-(nitrosooxy)propan-3-ol]																					Effect on mean pulmonary arterial pressure (anesthetised pigs; [3]): decreased; Effect on mean systemic arterial pressure (anesthetised pigs; [3]): decreased; Vasodilation (anesthetised pigs; 10-15 min iv infusion into sodium bicarbonate carrier): caused systemic and pulmonary vasodilation
CC(O)CON=O (stereo not shown) [1-Nitrite, 1-(nitrosooxy)-propan-2-ol]	0.08	0.81	3.76	0.07	0.74	3.72	3.55	0.07	0.74	3.50	0.08	0.78	3.75	0.08	0.81	0.08	0.86	3.72	0.09	0.81	Concentration [1, 24]: 3.67 % w/w; Concentration [1, 25]: 3.47 % w/w; Concentration [1, 26]: 0.07 % w/w; Concentration [1, 27]: 0.73 % w/w; Concentration [1, 28]: 3.33 % w/w; Concentration [1, 29]: 0.07 % w/w; Concentration [1, 30]: 0.77 % w/w; Concentration [1, 31]: 3.75 % w/w; Concentration [1, 32]: 0.08 % w/w; Concentration [1, 33]: 0.81 % w/w
CC(CO)ON=O (stereo not shown) [2-Nitrite, 2-(nitrosooxy)-propan-1-ol]	0.06	0.63	2.89	0.06	0.57	2.93	2.74	0.06	0.58	2.71	0.06	0.62	2.94	0.06	0.61	0.06	0.67	2.91	0.07	0.63	Concentration [1, 24]: 2.90 % w/w; Concentration [1, 25]: 2.69 % w/w; Concentration [1, 26]: 0.06 % w/w; Concentration [1, 27]: 0.57 % w/w; Concentration [1, 28]: 2.59 % w/w; Concentration [1, 29]: 0.06 % w/w; Concentration [1, 30]: 0.60 % w/w; Concentration [1, 31]: 2.94 % w/w; Concentration [1, 32]: 0.06 % w/w; Concentration [1, 33]: 0.61 % w/w
CCCCCC(O)C=CC1C2CC(CO2)C1CC=CCCCC(=O)O (stereo not drawn) [U46619, 9,11-dideoxy-9α, 11α-methanoepoxy PGF2α]																					Effect on arterial partial pressure of oxygen [2, 34]: slightly decreased; Effect on cardiac output [2, 34]: slightly decreased; mean pulmonary arterial pressure ([2]; during iv U46619 60-150 ng kg^−1 min^−1, before NO inhalation): 43 (37-48) mmHg; mean pulmonary arterial pressure ([2]; during iv U46619 60-150 ng kg^−1 min^−1, before PDNO infusion): 43 (41-46) mmHg; pulmonary vascular resistance ([2]; during iv U46619, before NO inhalation): 8.3 (6.7-11.7) mmHg min l^−1; pulmonary vascular resistance ([2]; during iv U46619, before PDNO infusion): 9.8 (7.7-12.5) mmHg min l^−1
nitric oxide [inhaled NO]																					Effect on pulmonary arterial pressure ([2]; PDNO iv 15-60 nmol kg^−1 min^−1 in sodium bicarbonate carrier or inhaled NO 5-40 ppm, during U46619): significantly reduced; Effect on methemoglobin concentration ([2]; PDNO iv 15-60 nmol kg^−1 min^−1 or inhaled NO 5-40 ppm, arterial blood): No drug significantly affected; Effect on mean arterial pressure [2, 35]: No drug significantly affected; Effect on pulmonary vascular resistance [2, 35]: significantly reduced; Effect on systemic vascular resistance [2, 35]: No drug significantly affected; Effect on arterial partial pressure of oxygen [2, 36]: increased this variable towards normal; Effect on cardiac output [2, 36]: no drug significantly changed; Pulmonary-to-systemic vascular resistances ratio compared to the PDNO group ([2]; at the highest doses, data not shown): slightly lower; Effect on pulmonary-to-systemic vascular resistances ratio ([2]; during U46619, data not shown): significantly decreased; Trend in methemoglobin concentration ([2]; inhaled NO group, associated to dose of delivered NO): tendency for an increase
